In paper PMC4906375, “Contribution of Amphipathicity and Hydrophobicity to the Antimicrobial Activity and Cytotoxicity of β-Hairpin Peptides” (ACS Infectious Diseases, 2016):
In brackets after ≈: the same amount, converted by molar mass. Where two headings read alike, the source gives them in different places.

Tests used:
[1] = tested on: E. coli ATCC 25922 (control strain); format: cell-based, Escherichia coli; details: ATCC 25922
Description: (§1) Both antibacterial and antifungal MIC assays were performed by a broth microdilution plate based method as per CLSI guidelines for antimicrobial susceptibility testing.[53],[54] […] Full assay details are included in the Supporting Information with a full list of strains tested in Table S1.
(§2) Antibacterial assay (Minimum Inhibitory Concentration [MIC]).
(§3) MIC assay was performed by a broth microdilution plate based method as per CLSI guidelines for antimicrobial susceptibility testing of aerobic bacteria.1 Compounds were prepared at 1.28 mg/mL solution in water. The tested strains, Table S1, were cultured in Luria broth (LB) (In Vitro Technologies, USB75852), at 37 °C overnight. A sample of culture was then diluted 40Pfold in fresh Muller Hinton broth (MHB) (Bacto laboratories, 211443) and incubated at 37 °C for 1.5P2 h. The compounds were serially diluted twoPfold across the wells, with compound concentrations ranging from 0.015 µg/mL to 512 µg/mL, plated in duplicate. The resultant midPlog phase cultures were diluted to the final concentration of 1×10^6 CFU/mL, then 50 µL was added to each well of the compoundP containing 96Pwell plates (Corning 3641, NonPbinding Surface [NBS]), giving a final compound concentration range of 0.008 µg/mL to 256 µg/mL and 5x10^5 CFU/mL. All the plates were covered and incubated at 37 °C for 18 h. MICs were determined visually, being defined as the lowest concentration showing no visible growth. Resazurin was added at 0.001% final concentration to each well and incubated for 2 h before MICs were rePread for confirmation using the colour change from blue to pink to indicate wells containing viable cells. The resazurin assay was added in some wells where some form of precipitate was present in otherwise clear wells, making it difficult to ascertain which wells had visible […]
(§4) Antifungal assay (Minimum Inhibitory Concentration [MIC]). MIC assay was performed by a broth microdilution plate based method as per CLSI guidelines for antimicrobial susceptibility testing.2 Fungi strains, Table S1, were cultured for 3 days on Yeast ExtractPPeptone Dextrose (YPD) (SigmaPAldrich, Y1500) agar at 30 °C. A yeast suspension of 1x10^6 to 5x10^6 CFU/mL was prepared from five colonies. These stock suspensions were diluted with Yeast Nitrogen Base (YNB) (Becton Dickinson, 233520) broth to a final concentration of 2.5 ×10^3 CFU/mL. All samples, compounds and standards were plated in 96Pwell plates (Corning 3641, NonPbinding Surface [NBS]), by adding 10 µL of 1.28 mg/mL stock solution to each well and 90 µL of media. Then, the samples were serial diluted (1:2) in 12 concentrations across the plate. The standard antifungal ranged from 256

[2] = tested on: E. coli ATCC 700926 (K12); format: cell-based, Escherichia coli; details: ATCC 700926
Description: as §1, §2, §3, §4

[3] = tested on: K. pneumoniae ATCC 13883; format: cell-based, Klebsiella pneumoniae; details: ATCC 13883
Description: as §1, §2, §3, §4

[4] = tested on: A. baumannii ATCC 19606; format: cell-based, Acinetobacter baumannii; details: ATCC 19606
Description: as §1, §2, §3, §4

[5] = tested on: P. aeruginosa ATCC 27853; format: cell-based, Pseudomonas aeruginosa; details: ATCC 27853
Description: as §1, §2, §3, §4

[6] = tested on: B. subtilis ATCC 6051; assay: microbe, parasite or virus in culture; format: cell-based, Bacillus subtilis; details: ATCC 6051
Description: as §1, §2, §3, §4

[7] = Cytotoxicity, Alamar Blue (resazurin) assay; format: cell-based, human; details: human
Description: Cytotoxicity to HEK293 and HepG2 cells was determined using the Alamar Blue (resazurin) assay,[55],[56] with 24 h of incubation and either 1 or 10% serum concentration. Full assay details are included in the Supporting Information.
Cytotoxicity. Cytotoxicity to HEK293 and HepG2 cells was determined using the Alamar Blue (resazurin) assay,3, 4 For the assays supplemented with 1 % FBS as final concentration the cells were seeded one day prior to the assay (3,000 per 20 µL for HEK293 and 4,000 per 20 µL for HepG2) with DMEM + 2 % FBS. The compounds were prepared as described below, using DMEM with no FBS instead to give the final FBS concentration of 1 %.
The highest concentration the compounds were tested was 300 µg/mL. A dilution series of 1:3 fold steps in DMEM (GIBCOPInvitrogen, cat. no. 11995P073) + 10 % FBS was created (concentration range of 600 µg/mL – 0.28 µg/mL), and 20 µL of these 2x concentrated compound dilutions were added in duplicates to wells of a black wall, clear bottom 384Pwells cell culture plate. For the assays with 1 % FBS the compounds in 0 % FBS were added to the existing cell plates in 2 % FBS. 200 µM Tamoxifen (Sigma T5648) served as negative control and in addition a serial dilution of tamoxifen, starting at 200 µM (74 µg/mL), was included as a dose response control (1 in 2 dilution series for tamoxifen). For the assay with 10 % FBS, HepG2 cells were seeded at 5000 cells per well, in a volume of 20 µL in DMEM medium + 10 % of FBS and added to the 20 µL of compound solution (total volume of 40 µL), resulting in a final compound concentration range of 300 µg/mL to 0.14 µg/mL.
Cells were incubated together with the compounds for 20 h at 37 °C, 5 % CO2.
After the incubation, 5 µL of 100 µM (25 µg/mL) resazurin dissolved in PBS (final concentration was approximately 11 µM) was added to each well. The plates were then incubated for 3 h at 37 °C, 5 % CO2. The fluorescence intensity was read using the TECAN Infinite M1000 PRO with excitation/emission 560/590. The data was analysed by Graph Pad Prism software. Results are presented as the average percentage of control ± SD for each set of duplicate wells using the following equation: Cell survival % = (FISAMPLE – FINegative/FIUNTREATED –FINegative)*100. (100 µg/mL tamoxifen was set as 0 % survival, media

[8] = Plasma protein binding, ultrafiltration; format: in vitro ADME; details: 100% human plasma, read-out: PPB (%) (converted)
Description: Plasma protein binding was performed using an ultrafiltration method.[58]
Plasma protein binding assay
Plasma protein binding was performed using an Ultrafiltration method.13 Fresh frozen human plasma was pooled from O Negative (Product number 1274512) blood from the R & D division of the Australian Red Cross Blood Services (Brisbane). Stock solutions (20 mg/mL) of the test compounds were prepared in H2O. Test compounds (40 µg/mL) were incubated in 100 % human plasma at 37 °C for 30 min (1 mL volume). For unfiltered samples, an aliquot (50 µL) was removed, diluted with PBS (50 µL) and quenched with icePcold precipitating solution comprising 0.5 µM carbutamide MS internal standard in acetonitrile : methanol : formic acid (1: 1 : 0.001). Samples were incubated at 4 °C for 30 min then centrifuged at 14000 × g for 8 min, with the clear supernatant transferred to a vial for LC/MS/MS analysis.
For filtered samples, the plasma sample (250 µL) was filtered using Amicon UltraP0.5 Centrifugal Filter Devices 30K NMWL at 14000 × g for 7 min and then an aliquot (50 µL) was processed as described for unfiltered samples. The fraction of unbound compound was calculated by determining the concentration of the filtered sample and the concentration of unfiltered sample. All samples were performed in triplicate with sulfamethoxazole as a […]

[9] = hemolysis (%) at 300 μg/mL, human erythrocytes, 3 h, relative to 100% hemolysis by 1% Triton X-100
[10] = tested on: human erythrocytes; details: red cells of human, 3 h
[11] = tested on: E. coli ATCC 25922 cytoplasmic membrane; details: not told
[12] = tested on: E. coli ATCC 25922 cytoplasmic membrane; assay: Inner membrane permeability measured by SYTOX green fluorescence emission; details: SYTOX green, E. coli ATCC 25922, 1 h

CC(C)C[C@H](NC(=O)[C@H](CCCNC(=N)N)NC(=O)CNC(=O)CNC(=O)[C@@H](N)CCCNC(=N)N)C(=O)N[C@H]1CSSC[C@@H](C(=O)N[C@H](C(=O)NCC(=O)N[C@@H](CCCNC(=N)N)C(N)=O)C(C)C)NC(=O)[C@H](C(C)C)NC(=O)[C@@H]2CSSC[C@H](NC(=O)[C@H](Cc3ccc(O)cc3)NC1=O)C(=O)N[C@@H](CCCNC(=N)N)C(=O)N[C@@H](CCCNC(=N)N)C(=O)N[C@@H](CCCNC(=N)N)C(=O)N[C@@H](Cc1ccccc1)C(=O)N2 [protegrin-1]
MIC [1]: 2 µg/mL (≈ 0.928 µM)
MIC [2]: 0.25 µg/mL (≈ 0.116 µM)
MIC [3]: 0.5 µg/mL (≈ 0.232 µM)
MIC [4]: 0.25 µg/mL (≈ 0.116 µM)
MIC [5]: 4 µg/mL (≈ 1.86 µM)
MIC [6]: 0.03 µg/mL (≈ 0.0139 µM)
CC50 at 24 h ([7]; HEK293 cells, HEK293, 1% FBS, read-out: cytotoxicity HEK293 1% FBS): 19.6 ± 1.2 µg/mL (≈ 9.09 µM)
CC50 at 24 h ([7]; HEK293 cells, HEK293, 10% FBS, read-out: cytotoxicity HEK293 10% FBS): 93.9 ± 1.1 µg/mL (≈ 43.6 µM)
CC50 at 24 h ([7]; HepG2 cells, HepG2, 1% FBS, read-out: cytotoxicity HepG2 1% FBS): 31.4 ± 2 µg/mL (≈ 14.6 µM)
CC50 at 24 h ([7]; HepG2 cells, HepG2, 10% FBS, read-out: cytotoxicity HepG2 10% FBS): 96.1 ± 1.1 µg/mL (≈ 44.6 µM)
fraction unbound [8]: 0.11
hemolysis [9]: 65%
hemolysis (%) at 300 μg/mL [10]: 64.8 ± 3.5%
permeabilization concentration relative to MIC [11]: lower concentration than their MIC
permeabilisation of the E. coli cytoplasmic membrane at lethal concentrations [12]: permeabilise
